Data on 16 compounds can be found in patent US8633216B2, “Imidazo[1,5-a]pyridine derivatives, method for preparing same and pharmaceutical compositions containing same” (Sanofi, priority 2005, dated 2014).

In data set [1] the test system is level of circulating platelets. Kind of data set: Effect on thrombopenia induced by carboplatin in the mouse. Format: in vivo. The settings on record: 150 mg/kg intraperitoneally, balbC mice, at nadir. The text has this: Thrombopenia remains a pathology for which few effective treatments exist apart from the transfusion of platelet concentrates and thrombopoietin (Kaushansky, K., New Eng. J. Med., (1998), 339, pp. 746-754).
Anticancer chemotherapy constitutes one of the major causes of thrombopenia. One of the agents of chemotherapy, carboplatin, has been widely used to induce thrombopenia in the mouse and to be able thus to characterize the effect of compounds capable of improving the level of platelets, such as, for example, thrombopoietin (Hokom M. M. et al., Blood, (1995), 86, pp. 4486-4492).
150 mg/kg of carboplatin were administered intraperitoneally to balbC mice having a weight of 20 g. A blood sample is taken periodically by retro-orbital puncture and the level of circulating platelets is determined by a hematology automated machine (MS9™ from Melet-Schloesing Laboratoires, Cergy-Pontoise, France). […]
The compounds according to the invention or their solvent (a blank-control) are administered by the oral route for 5 days, the treatment being begun 7 days before the administration of carboplatin. The experiments are carried out on batches comprising 10-12 mice and the results are expressed as a mean±standard error. […]

Structures can show the parent of a compound that is named as a salt.

For orientation: melting point means the temperature of the solid-liquid transition. For `COC(=O)c1cccc(-c2nc(C(=O)c3ccc(N)c(OC)c3)n3ccccc23)c1`, the melting point turned out to be 166 °C. Same read-out and setting: with `COc1cc(C(=O)c2ncc3cc(C(=O)O)ccn23)ccc1[N+](=O)[O-]` the figure was more than 350 °C; with `COC(=O)c1ccc2cnc(C(=O)c3ccc([N+](=O)[O-])c(OC)c3)n2c1`, 218 °C. Same read-out and setting: the figure for `COC(=O)c1ccc2cnc(C(=O)c3ccc(N)c(OC)c3)n2c1` is 179 °C. On the same count and under the same terms, with `COc1cc(C(=O)c2nc(C#N)c3ccccn23)ccc1N` (as salt: HCl) the figure was 224 °C.

The compound `COc1cc(C(=O)c2nc(Br)c3ccccn23)ccc1N` (as salt: HCl) (hydrate or solvate) had a melting point of 204 °C.

`COc1cccc(C(=O)Nc2nc(C(=O)c3ccc(N)c(OC)c3)n3ccccc23)c1` (as salt: HCl) (hydrate or solvate) returned a melting point of 199 °C. Regarding `COc1cc(C(=O)c2nc(-c3cccc(F)c3)c3ccccn23)ccc1N` (as salt: HCl) (hydrate or solvate), the melting point came to 228 °C.

`COc1cc(C(=O)c2ncc3cc(C(=O)O)ccn23)ccc1N` (as salt: HCl) (hydrate or solvate): the melting point was found to be 268 °C.

As for `COC(=O)[C@@H](C)NC(=O)c1ccn2c(C(=O)c3ccc(N)c(OC)c3)ncc2c1` (as salt: HCl) (hydrate or solvate), the melting point worked out at 192 °C. Still for that read-out and setting: the figure for `COc1cc(C(=O)c2ncc3c(C(=O)O)cccn23)ccc1N` (as salt: Na) is 259 °C. Same read-out and setting: the figure for `COc1cc(C(=O)c2ncc3c(C(=O)O)cccn23)ccc1[N+](=O)[O-]` (as salt: Na) is 332 °C. In turn, `COc1cccc(-c2nc(C(=O)c3ccc(N)c(OC)c3)n3ccc(C(=O)O)cc23)c1` (as salt: Na) (hydrate or solvate) had a melting point of 307 °C. Still for that read-out and setting: with `COc1cc(C(=O)c2ncc3cc(OCC(=O)O)ccn23)ccc1N` (as salt: Na) (hydrate or solvate) the figure was 302 °C; with `COc1cc(C(=O)c2ncc3ccc(C(=O)N[C@@H](CO)C(=O)O)cn23)ccc1N` (as salt: Na) (hydrate or solvate), 244 °C. For the compound `N.N.O=C([O-])C1(C(=O)[O-])CCC1.[Pt+2]` [carboplatin], in data set [1], the “reduction in the level of circulating platelets” value is recorded as 50-60%.
